Ends that are not written are not given here.
Experiments:
LC3B K30R = biological target: T1, LC3B K30R (Homo sapiens, UniProt Q9GZQ8, K30R); assay: ITC titration of PLEKHM1-LIR peptide into LC3B K30R mutant; assay type: binding
T1 construct: modified Ub-leader (ubiquitin fusion leader) (N); made in house; host or cells: E. coli NEB T7 Express
Experimental: The chimeric constructs were expressed as a His‐tag fusion protein in E. coli BL21(DE3) cells. The cells were induced with 0.3 mM IPTG at OD600 0.6 for 16 h at 26°C. The cell pellets were lysed using mechanical sonication in lysis buffer (20 mM Tris–HCl pH 9.0, 100 mM NaCl, 10 mM imidazole, supplemented with 0.1% Triton X‐100). The proteins were purified using Ni‐NTA beads (GE Healthcare) and the His‐tag was cleaved using thrombin (Invitrogen) at room temperature for 16 h. The last step was gel filtration chromatography using a Superdex S200/300 GL column (GE Healthcare). The proteins were concentrated using spin concentrators (Vivaspin). For ITC and NMR studies, the non‐labelled and stable isotopes labelled LC3 and GABARAP proteins were obtained based on the protocols described elsewhere 30, 39. Here, E. coli NEB T7 Express culture transformed with corresponding plasmids were grown till OD600 nm = 1.0 and protein expression was induced with 0.2 mM IPTG. The cultures were incubated at 25°C for 8–12 h before cell harvesting. Isolation and purification procedures were similar to those reported in Ref. 22, 40. Before experiments, all proteins and peptides were equilibrated with a buffer containing 50 mM Na2HPO4, 100 mM NaCl at pH 7.0, and supplied with 5 mM protease inhibitor cocktail.
The protocol for preparation of non‐labelled and ^13C,^15N‐labelled PLEKHM1‐LIR peptide was slightly modified to achieve highest yield of the peptide. The 50 ml M9 culture was inoculated with NEB T7 cell transformed with pET39_Ub63‐PLEKHM1‐LIR plasmid and grown overnight at 37°. The collected cells were resuspended in 2 l of either LB or M9 media contained 1.5 g ^15N‐labelled NH4Cl and 3.0 g of ^13C‐labelled glucose. The cultures were grown at 37° till A(600 nm) = 0.9 and supplied with 1 mM of IPTG to induce Ub63‐PLEKHM1‐LIR overexpression (3 h at 37°). After that cells were harvested by centrifugation, re‐suspended in buffer contained 50 mM Tris–HCl pH = 7.9, 200 mM NaCl, 5% glycerol, 0.1 mg/ml DNase A and 4 mM protease inhibitor cocktail. After cell lysis by French press, debris was removed by centrifugation and clear supernatant was applied onto the column contained Ni‐NTA Sepharose equilibrated with the loading buffer (50 mM Tris–HCl pH = 7.9, 250 mM NaCl, 1% glycerol and 20 mM imidazole). Elution was performed with 400 mM imidazole in the same buffer. An aliquot of pure Ub63‐PLEKHM1‐LIR fractions was further purified by gel filtration on Superdex75 26 × 60 column for control ITC and analytical size exclusion chromatography experiments, remaining fusion protein was processed with the TEV‐protease and PLEKHM1‐LIR peptide was purified to 95% purity by reverse Ni‐NTA chromatography and followed gel filtration on Superdex75 26 × 60 column. Peak maximum of peptide was detected at […] (void volume 115 ml). Pure peptide was concentrated in Amicon concentrators with cut‐off of 3 kDa (> 95% retention).
(§1) All titration experiments were performed at 25°C using a VP‐ITC microcalorimeter (Malvern Instruments Ltd, UK). The ITC data were analysed with the ITC‐Origin 7.0 software with a “one‐site” binding model. The peptides at concentrations of 0.4 mM were titrated into 0.020 mM LC3 and GABARAP proteins in 26 steps. The protein and peptide concentrations were calculated from the UV absorption at 280 nm by NanoDrop spectrophotometer (Thermo Fisher Scientific, DE, USA).

[1] = tested on: GABARAP subfamily proteins (GABARAP-L1, GABARAP-L2); assay: NMR titration of 15N-labelled GABARAP proteins with PLEKHM1-LIR peptide; assay type: binding, human; settings: 298 K, 0.18 mM 15N-labelled protein, up to two times peptide excess
Experimental: All NMR experiments were performed at 298 K on Bruker Avance spectrometers operating at proton frequencies of 500, 600 and 700 MHz. Titration experiments were performed with a 0.18 mM ^15N‐labelled LC3 and GABARAP protein samples to which the non‐labelled PLEKHM1‐LIR peptide was added stepwise until four times excess to LC3 proteins or two times excess to the GABARAP proteins. Backbone HN resonances for selected mATG8 proteins in complex with the PLEKHM1‐LIR peptide were assigned using [^15N‐^1H]‐TROSY versions of 3D HNCACB experiment. For assignment of PLEKHM1‐LIR peptide backbone HN resonances in complexes with the LC3 and GABARAP proteins, [^15N‐^1H]‐TROSY versions of 3D HNCACB experiment and hCcconh‐TOCSY experiment were used.

[2] = biological target: LC3-subfamily of proteins; assay: ITC, LC3-subfamily (range); assay type: binding, human
Experimental: as §1

GAMGPQQEDEWVNVQYPD [PLEKHM1‐LIR WT]
-T*DS (LC3B K30R; 25°C, pH 7.0, LC3B K30R): -1.08 kcal/mol
DG (ΔG) (LC3B K30R; 25°C, pH 7.0, LC3B K30R): -7.20 kcal/mol
DH (ΔH) (LC3B K30R; 25°C, pH 7.0, LC3B K30R): -6.1 ± 0.2 kcal/mol
DS (ΔS) (LC3B K30R; 25°C, pH 7.0, LC3B K30R): +3.61 cal mol-1 K-1
KA (LC3B K30R; 25°C, pH 7.0, LC3B K30R): 0.19±0.01 *10^6 M-1
N (LC3B K30R; 25°C, pH 7.0, LC3B K30R): 1.11±0.02
increase in favorable binding enthalpy vs wild type LC3B (LC3B K30R; within experimental error): 0.3 kcal/mol
exchange behaviour upon titration, GABARAP subfamily [1]: slow exchange
Kd [2]: 3.5 to 6.3 µM

Source: publication PMC5538626, “Structural and functional analysis of the GABARAP interaction motif (GIM)” (EMBO Reports, 2017)
